From patent US20050288347A1, “Certain triazole-based compounds, compositions, and uses thereof” (priority 2004, published 2005)
Entries after “also recorded” stand apart in the source; their conditions may differ.

System: protein kinase
Experiment: HTS ATP-utilizing enzyme assay, off-chip mobility-shift format (Caliper HTS 250)
Assay type: biochemical, human
Conditions: not given
From the text: The following procedures describe the reagent and plate preparation for a HTS of an ATP-utilizing enzyme, such as a protein kinase, run in an off-chip mobility-shift assay format. The following provides an HTS protocol for running a protein kinase HTS screen on a Caliper HTS 250 microfluidics system. The following parameters are dependent on the protein kinase used and can be determined by one skilled in the art as part of a typical assay development process. For example, the peptide substrate used can be identified from the current literature, by screening a peptide library of potential protein kinase substrates, or by other applicable means accepted in the field.
The following table provides typical screen assay parameters appropriate for a Caliper HTS 250 microfluidics system.
The reagents and buffers listed in the following table are generally applicable for developing and running an HTS screen on a human protein kinase using the Caliper HTS 250 system.
The following reagents were prepared using the previously described buffers.
A 2× Master Buffer solution was prepared by combining 200 mL of 1 M HEPES, pH 7.5, 2 mL of 10% Triton X-100, 20 mL of 10% BSA, and 778 mL of H2O.
Assays to determine the kinase inhibitory activity of chemical entities of the present disclosure were performed using a Caliper HTS 250 microfluidics device, Greiner U-bottom assay plates, a Multidrop for transfer of reagents, and Biomek FX (AMNCBM03) software. Initially, 2.4 μL of a 1 mM solution of a test compound in 100% DMSO was added to a well of the Greiner U-bottom plate. A single Greiner U-bottom plate having 24×16 wells could include multiple test compounds. […] Using the Biomek FX, 10 μL of 0.5 M EDTA was added by the span-8 to wells, indicated as 100% Control and 2.4 μL of 100% DMSO was added by the span-8 to wells, indicated as 0% Control. […] The total reaction volume in each well was 25 μL, and the concentration of the test compound was 10 μM. The assay plate was incubated for 2.5 hrs at 20° C. to 22° C. […] The inhibition of the ATP-utilizing enzyme, such as a particular protein kinase, was determined by measuring the ratio of the peptide substrate to phosphorylated product for each well of the assay plate using the Caliper HTS 250 system.
The use of three-sigma statistical limits represents a conservative method for declaring potential hits among targets. The three-sigma activity, as well as the mean population activity, can be different for each target enzyme.

Row | Structure (SMILES) | protein kinase against which the compound exhibits inhibitory activity (Table 3) | Kinase
1 | COc1ccccc1-n1c(SCC2COc3ccccc3O2)nnc1-c1cccc(Cl)c1 (centres unmarked) | MAPKAPK-3 | –
2 | COc1ccccc1-n1c(SCCCCc2ccccc2)nnc1-c1cccc(N(C)C)c1 | MAPKAPK-3 | –
3 | COc1ccccc1-n1c(SCCCCc2ccccc2)nnc1-c1cc(C)n[nH]1 | MAPKAPK-3 | –
4 | COc1ccccc1-n1c(SCCCCc2ccccc2)nnc1-c1ccc(N)nc1 | MAPKAPK-3 | –
5 | COc1ccccc1-n1c(SCCC(=O)Nc2cc(NC(=O)c3ccco3)ccc2C)nnc1-c1ccccc1 | MAPKAPK-3 | –
6 | Cn1c(SCC(=O)NCc2ccc3c(c2)OCO3)nnc1-c1cc2ccccc2cc1O | – | CSK

Same assay, conditions: kinase(s) for which the compound exhibits protein kinase inhibitory activity; test compound 10 μM; active = greater than three-sigma from the mean activity of inactive compounds

Row | Kinase | Structure (SMILES)
7 | GSK3-β and GSK3-α and SRC | O=C(CSc1nnc(-c2ccc(O)cc2)n1Cc1ccco1)N1CCc2ccccc2C1
8 | c-TAK1 | Cc1nnc(SCC(=O)N2CCCc3ccccc32)n1-c1ccccc1
9 | FYN | COc1ccc(NCc2nnc(SCC(=O)Nc3ccccc3C(=O)O)n2-c2ccc(OC)cc2)cc1
10 | GSK3-β; also recorded: GSK3-α | CCc1nnc(NC(=O)CSc2nnc(-c3ccc(O)cc3)n2-c2cccc(Cl)c2)s1
11 | GSK3-β; also recorded: GSK3-α | NC(=O)CSc1nnc(-c2ccc(O)cc2)n1-c1cccc(Cl)c1
12 | SRC | NC(=O)CSc1nnc(-c2cc3ccccc3cc2O)n1Cc1ccco1
13 | GSK3-β and AKT3 and SRC | O=C(CSc1nnc(-c2ccncc2)n1Cc1ccco1)Nc1cccc(I)c1
14 | AKT1 | CC1CCCCC1NC(=O)CSc1nnc(-c2ccccc2)n1Cc1ccccc1 (centres unmarked)
15 | SYK | CCn1c(SCC(=O)N2CCN(c3ccc(OC)cc3)CC2)nnc1-c1ccc(O)cc1
16 | MAPKAPK-2 | COc1cc(-c2nnc(SCC(=O)Nc3cc([N+](=O)[O-])ccc3C)n2C)cc(OC)c1OC
17 | CDK2-cyclinE | Cc1cccc(-c2nnc(SCC(=O)Nc3cccc(C(F)(F)F)c3)n2C)c1
18 | AURORA-A | COc1ccccc1-c1nnc(SCC(=O)Nc2ccccc2)n1C
19 | GSK3-α; also recorded: GSK3-β | CCn1c(SCC(=O)Nc2nccs2)nnc1C1COc2ccccc2O1 (centres unmarked)
20 | DAPK1 | COc1ccc(N2CCN(C(=O)CSc3nnc(-c4cc5ccccc5cc4O)n3C)CC2)cc1
21 | GSK3-α | COc1ccc(-n2c(SC(C)C(=O)Nc3ccc(C)cc3)nnc2-c2ccc(O)cc2)cc1 (centres unmarked)
22 | GSK3-α | Cn1c(Cn2nnc3ccccc32)nnc1SCC(=O)Nc1cccc(O)c1
23 | PDGFRR-α | CCn1c(CNc2ccccc2Cl)nnc1SC(C)C(=O)Nc1ccc([N+](=O)[O-])cc1 (centres unmarked)
24 | CDK2-cyclinE | O=C(CSc1nnc(CNc2cccc(Cl)c2)n1CCc1ccccc1)NC1CCCCC1
25 | MSK1 and SGK1 | COc1ccccc1NC(=O)CSc1nnc(CNc2cccc(Cl)c2)n1-c1ccccc1
26 | PDGFRR-α | CCc1ccccc1NC(=O)CSc1nnc(COc2ccc(Cl)cc2)n1C
27 | c-TAK1 | CCn1c(CNc2ccc(Cl)cc2)nnc1SCC(=O)Nc1ccccc1
28 | PDGFRR-α and FYN | CCOc1ccc(NCc2nnc(SCC(=O)Nc3cc(C)on3)n2-c2ccccc2OC)cc1
29 | FYN | CCOc1ccc(NCc2nnc(SC(C)C(=O)N(c3ccccc3)c3ccccc3)n2-c2ccc(OC)cc2)cc1 (centres unmarked)
30 | CHEK2 | Cn1c(CNc2ccc(F)cc2)nnc1SCC(=O)Nc1ccc([N+](=O)[O-])cc1
31 | PDGFRR-α and FYN | COc1ccc(NCc2nnc(SCC(N)=O)n2C)cc1
32 | PDGFRR-α | COc1ccc(NCc2nnc(SCC(=O)N3c4ccccc4Sc4ccccc43)n2-c2ccccc2)cc1
33 | PDGFRR-α and FYN | COc1ccc(NCc2nnc(SCC(=O)Nc3ncc(C)s3)n2-c2ccccc2)cc1
34 | GSK3-α | CCn1c(CSc2nc(C)cc(C)n2)nnc1SCC(=O)Nc1nccs1

Row | Kinase | Structure (SMILES)
35 | CDK1 | Cc1cc(C)nc(SCc2nnc(SCC(=O)Nc3cccc(C(F)(F)F)c3)n2C)n1
36 | AURORA-A | CCn1c(CNc2ccc(C)cc2)nnc1SCC(=O)Nc1ccccc1OC
37 | CHEK2 | COc1cccc(NC(=O)CSc2nnc(CNc3ccc(C)cc3)n2C)c1
38 | CDK2-cyclinE | Cc1ccc(-n2c(Cc3ccccc3)nnc2SCC(=O)N2c3ccccc3Sc3ccccc32)cc1
39 | PDGFRR-α; also recorded: FLT-3 | CCOc1ccc(NCc2nnc(S)n2-c2cccc(Cl)c2)cc1
40 | AURORA-A; also recorded: GSK3-α | COc1ccc(-n2c(S)nnc2CNc2ccc(Cl)cc2)cc1
41 | PDGFRR-α | CCc1ccccc1NC(=O)CSc1nnc(COc2ccc(C)cc2)n1C
42 | PDGFRR-α | COc1cc(NC(=O)c2ccco2)c(OC)cc1NC(=O)CSc1nnc(-c2cccs2)n1C
43 | FYN and PDGFRR-α and FLT-3 | CCOc1ccc(NCc2nnc(SCC(=O)Nc3cccc(C(C)=O)c3)n2-c2ccccc2)cc1
44 | PDGFRR-α and FYN and AURORA-A | COc1ccc(NCc2nnc(SCC(=O)Nc3cccc(Cl)c3)n2-c2ccc(C)cc2)cc1
45 | PDGFRR-α and AURORA-A and FYN | COc1ccc(NCc2nnc(SCC(=O)Nc3cccc(Cl)c3)n2C)cc1
46 | DAPK1 | CCn1c(SCC(=O)Nc2sc(C)c(C)c2C#N)nnc1-c1ccc(S(=O)(=O)N2CCOCC2)cc1
47 | AKT1 | COCCn1c(SCC(=O)Nc2cccc(O)c2)nnc1-c1ccncc1
48 | GSK3-α; also recorded: CDK2-cyclinE | COc1cccc(NC(=O)CSc2nnc(COc3cccc(C)c3)n2C)c1
49 | GSK3-α | CCC(=O)Nc1ccc(NC(=O)CSc2nnc(-c3ccc(O)cc3)n2CC)cc1C
50 | CHEK2 | CC(=O)c1ccc(NC(=O)CSc2nnc(COc3ccccc3)n2-c2ccc(C)cc2)cc1
51 | GSK3-α and AKT1 | CCOc1ccc2nc(NC(=O)CSc3nnc(-c4ccncc4)n3Cc3ccco3)sc2c1
52 | AKT1 | COc1ccc(-c2nnc(SCC(=O)Nc3ccc4c(c3)OCO4)n2C)cc1
53 | GSK3-α | CCn1c(CNc2ccc(C)cc2C)nnc1SCC(=O)Nc1ccccc1-c1ccccc1
54 | LCK | Cc1cccc(C)c1NCc1nnc(SCC(=O)Nc2ccccc2-c2ccccc2)n1C
55 | GSK3-α | O=C(CSc1nnc(Cn2nnc(-c3ccccc3)n2)n1-c1ccccc1)Nc1ccccc1
56 | CDK1 and AURORA-A | C=CCn1c(SCC(=O)Nc2sc3c(c2C(=O)OCC)CCC3)nnc1-c1ccncc1
57 | PDGFRR-α and FYN | CCOC(=O)CN(C(=O)CSc1nnc(-c2ccc([N+](=O)[O-])cc2)n1C)c1ccccc1
58 | LCK | CCOC(=O)CN(C(=O)CSc1nnc(CNc2ccc(F)cc2)n1-c1ccccc1)c1ccccc1
59 | PDGFRR-α | CCOC(=O)CN(C(=O)CSc1nnc(-c2ccncc2)n1-c1ccccc1)c1ccccc1
60 | AKT1 | CCOC(=O)c1ccc(NC(=O)CSc2nnc(C)n2CCOC)cc1
61 | AURORA-A | COC(=O)c1ccccc1NC(=O)CSc1nnc(CNc2cccc(Cl)c2)n1C

Row | Structure (SMILES) | Kinase
62 | O=C(CSc1nnc(-c2cccnc2)n1Cc1ccco1)Nc1nccs1 | GSK3-α; also recorded: GSK3-β; also recorded: CDK2-cyclinE
63 | COc1ccc(NCc2nnc(SCC(=O)N(c3ccccc3)c3ccccc3)n2-c2ccccc2)cc1 | CHEK2; also recorded: PDGFRR-α; also recorded: FYN α
64 | CCOc1ccc(NCc2nnc(S)n2-c2ccc(OC)cc2)cc1 | FLT-3; also recorded: PDGFRR-α; also recorded: AURORA-A
65 | COc1ccc(NCc2nnc(SCC(=O)Nc3cccc(O)c3)n2-c2ccccc2OC)cc1 | CHEK2; also recorded: PDGFRR-α; also recorded: AURORA-A
